Target: Cytochrome P450 2D6 (Homo sapiens, UniProt P10635)
Test: Inhibition of Dextromethorphan Metabolism: Dextromethorphan O-demethylase activity was determined in human liver microsomes. […] The incubation mixtures contained pooled human liver microsomes (final concentrations: 0.25 mg/ml), dextromethorphan, and a NADPH-generating system (1.3 mM NADP+, 3.3 mM glucose 6-phosphate, 3.3 mM MgCl2, and 0.4 U/ml glucose-6-phosphate dehydrogenase). […] All incubations were performed in triplicate, and mean values were used for analysis.

Chain of Cytochrome P450 2D6 (P10635 whole entry): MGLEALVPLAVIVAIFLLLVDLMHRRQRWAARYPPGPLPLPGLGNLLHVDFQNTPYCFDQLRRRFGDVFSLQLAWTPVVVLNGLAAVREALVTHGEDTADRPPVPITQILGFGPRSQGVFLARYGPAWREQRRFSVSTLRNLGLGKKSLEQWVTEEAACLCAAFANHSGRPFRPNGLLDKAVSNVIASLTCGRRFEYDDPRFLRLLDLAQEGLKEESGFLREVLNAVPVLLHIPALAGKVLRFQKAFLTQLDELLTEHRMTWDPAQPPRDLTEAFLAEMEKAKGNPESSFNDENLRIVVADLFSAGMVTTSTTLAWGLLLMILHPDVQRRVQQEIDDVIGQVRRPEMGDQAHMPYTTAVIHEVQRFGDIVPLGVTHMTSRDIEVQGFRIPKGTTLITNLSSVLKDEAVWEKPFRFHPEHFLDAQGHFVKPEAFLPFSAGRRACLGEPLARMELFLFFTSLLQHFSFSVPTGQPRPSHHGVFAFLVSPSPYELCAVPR

- IC50: 1200 nM
Structure (SMILES): COc1ccc(CCc2ccccc2OCC(CN(C)C)OC(=O)CCC(=O)O)cc1 (stereo unspecified)
